# Measurements published in article PMC11388068, “Amide naphthotube as a novel supramolecular sequestration agent for tetracaine and decamethonium” (Theranostics, 2024).
# Several values for one entry are separate records, joined by “and”; a condition that tells them apart may be missing. Identical values can stand only once. Like-named read-outs stand apart in the source and are kept apart here.
# Experiments:
# AC16 cells [1] = assay: Intracellular sodium levels; type: cell-based, Human; conditions: TC 400 µM, 10 minutes
# Procedure: Determination of intracellular sodium levels: 3×10^5 AC16 cells were seeded in 6-well plates with 2 mL of medium. After 12 hours, the cell medium was replaced with 400 µM TC and varying concentrations of compound 1b (ammonium salt, 0, 400, 800, and 2000 µM) or 2000 µM 1b in HBSS for 10 minutes at 37 °C. Control cells were treated with 2 mL HBSS for 10 minutes at 37 °C. After washing with PBS, cells were lysed in 300 µL of 1% Triton X-100 in saline with a 1% proteinase inhibitor cocktail from Meilunbio. The lysates were centrifuged at 12,000 ×g for 15 minutes, and the supernatant was collected for sodium level determination (7600 Modular-Hitachi-Chemistry Analyzer) and total protein content BCA assays (Epizyme Biotech). The sodium-to-protein ratio was calculated, presenting results as relative intracellular sodium content compared to the control group.
# Balb/c mice [2] = assay: Lethal TC poisoning mouse model (Dixon's up-and-down, probit); type: in vivo, female Balb/c mice; conditions: TC i.v., probit analysis
# Procedure: (§1) Lethal TC poisoning mouse model: the lethal dose of i.v. administered TC was calculated in mice (8-10 week old female Balb/c mice, weighing 20-25 g) using Dixon's up-and-down method. The initial dose of TC given to the first mouse was 9.0 mg/kg, and the standard dose ratio of TC given to the adjacent mouse was 0.9. If the animal survives, the subsequent animal receives a higher dose. If the animal dies, the following animal receives a lower dose. This process was repeated until at least seven crossover points were achieved. Probit analysis was employed to determine the LD50 (50% lethal dose) and LD95 (95% lethal dose) of TC, along with their corresponding CI (confidence intervals). Sequence diagrams and dose-response curves were generated using GraphPad Prism 9 software.
# [3] = as above; type: in vivo, female Balb/c mice; conditions: female, Balb/c, mouse, in vivo, iv, TC i.v., mice, probit analysis
# Procedure: as §1
# Human myocytes AC16 cell = assay: CCK-8 cytotoxicity assay in AC16 cells; type: cell-based; conditions: 24 h, 24 h incubation, mixtures in a 1:1 ratio
# Procedure: Cells experiments: AC16 cells were cultured in DMEM/F12 with 10% FBS, 1% penicillin, and 1% streptomycin at 37 °C with 5% CO2, and passaged every 2 days. They were seeded into 96-well plates at a density of 5-8×10^3 cells per well and cultured overnight. Then, different concentrations of TC, 1a, 1b, TC@1a and TC@1b mixture solution at various concentrations (25, 50, […], […], 200, 400, 800, and 1600 μM) were added to replace the culture medium for 24 h at 37 °C. After incubation, Cell Counting Kit-8 solution (10 μL per well) was added, and cells were incubated for 4 h at 37 °C. The optical density values at 450 nm were measured using a microplate reader to assess cell viability as a percentage of control cells. Finally, IC50 values were calculated using GraphPad Prism 8.0.2 software.
# The assay and cell viability were calculated as in the cell experiment above.
# AC16 cells [4] = assay: Plasma membrane potential, DiBAC4(3) flow cytometry; type: cell-based, Human; conditions: AC16 cells exposed to TC for 10 minutes
# Procedure: Determination of the plasma membrane potential: AC16 cells were seeded into 12-well plates and cultured until reaching 80-90% confluence. Following removal of the culture medium, cells were exposed to HBSS (Hank's Balanced Salt Solution) containing […] TC for 10 minutes at 37 °C. Subsequently, cells were collected and incubated with 200 nM Bis-(1,3-Dibutylbarbituric Acid)-Trimethine Oxanol (DiBAC4(3), Solarbio) for 20 minutes at 37 °C. The fluorescence intensity of cells was then assessed using flow cytometry. To determine the impact of 1b (ammonium salt) on plasma membrane potential, 25×10^4 AC16 cells were co-incubated with 400 µM TC and varying concentrations of 1b (0, 400, 800, and 2000 µM) or exclusively with 1b (2000 µM) in HBSS for 10 minutes at 37 °C. Plasma membrane potential was subsequently evaluated using the aforementioned methodology.
# Balb/c mice [5] = assay: C10-induced paralysis dose in a mouse model (Rotarod); type: in vivo, Female Balb/c mice; conditions: C10 i.v., probit analysis
# Procedure: Determination of C10-induced paralysis dose in a mouse model: The movement behavior was conducted with the Rotarod rotor (ZB-200). Female Balb/c mice (8-9 weeks old) weighing 18-22 g were placed on the Rotarod rotor and trained three times for 30 minutes, three times a day for three consecutive days. On day 4, Dixon's up-and-down method was employed to explore the effective dose: The initial dose of C10 to the first mouse was 0.6 mg/kg, and the standard dose ratio of C10 given to the adjacent mouse was 0.8. […] Conversely, in the case of a negative response, the following mouse received an increased dose. Tests were conducted sequentially, with changes in mobility response transitioning between positive and negative until at least 7 crossover points were reached. Probit analysis was employed to determine the ED50 (50% effective dose) and ED95 (95% effective dose) of C10, along with their corresponding CI (confidence intervals). Sequence diagrams and dose-response curves were generated using GraphPad Prism 9 software.
# C10-induced paralysis = assay: Mobility recovery assessment in a mouse model (Rotarod); type: in vivo, Female Balb/c mice; conditions: mice given C10 0.53 mg/kg, no 1b
# Procedure: Mobility recovery assessment in a mouse model: the trained mice for 4 days were i.v. administered with either 4 mg/kg or 6 mg/kg of 1b, or saline, 30 seconds after administering 0.53 mg/kg C10. The mice were then placed on the rotor, and the time taken to move on the rotor for 30 seconds successfully was recorded.
# mice = assay: Lethal C10 poisoning mouse model (Dixon's up-and-down, probit); type: in vivo; conditions: C10 i.v., probit analysis
# Procedure: (§2) Lethal C10 poisoning mouse model: the lethal dose of i.v. administered C10 was calculated using Dixon's up-and-down method similar to TC. The initial dose of C10 was 0.9 mg/kg. Subsequent doses for each mouse were adjusted by ±0.1 mg/kg based on the outcome of the preceding animal.
# [6] = as above; type: in vivo; conditions: Balb/c, mouse, in vivo, iv; C10 i.v., mice, probit analysis
# Procedure: as §2
# [7] = Plasma pharmacokinetics of C10, saline- and 1b-treated groups; type: in vivo, Male Kunming mice; conditions: for AUC(0-inf) / AUC(0-t) / Cmax / MRT last / MRT inf / half-life / Vd: plasma; for MRT last: read-out: MRT0-t; for MRT inf: read-out: MRT0-∞; for half-life: read-out: T1/2z (converted); for Vd: read-out: Vz
# Procedure: Male Kunming mice (30 ± 2 g) were used in the pharmacokinetic study. Drugs were injected through the tail vein of mice. Blood, liver, and kidney tissues were collected at certain intervals after administration with 6 mice at each time point. Blood samples were placed in heparin sodium tubes and centrifuged at 6000 rpm for 20 minutes at 4^ oC to obtain plasma samples. Plasma, liver and kidney tissues were stored in a freezer at -80 °C and frozen until analysis was performed. The drug concentrations were determined by Liquid chromatography-mass spectrometry (Waters ACQUITY UPLC/Xevo TQ-S). The Masslynx 4.1 software was used to obtain the peak area of the tested compounds and internal standards in each plasma sample and calculate the standard curve formula. […] The detailed pharmacokinetics experiment procedure including materials and reagents, sample preparation, establishment and validation of analytical strategy, and LC-MS conditions are described in the Supporting Information.
# 1.3. A dministration and collection of plasma samples
# Male Kunming mice (30±2g) were randomly divided into 5 groups, namely 1b group (dose 80mg/kg, concentration 20mg/ml), C10 group (dose 0.45mg/kg, concentration 0.125mg/ml, C10 injection for 30s followed by the same volume of normal saline), 1b combined with C10 group (C10 dose 0.45 mg/kg, C10 concentration 0.125mg/ml, C10 injection for 30s followed by 1b 6 mg/kg, 1b concentration 1.5 mg/ml). Drugs were injected through the tail vein of mice. In group 1b , eyeball blood and liver and […]
# after administration, with 6 mice in each time point. In the other four groups, blood and liver and kidney tissues were collected from eyeballs at 3min, 5min, 10min, 15min, 30min, 45min and 1h after administration. Six mice were selected at each time point. Blood samples were placed in heparin sodium tubes and centrifuged at 6000rpm for 20 minutes at 4℃ to obtain plasma samples. They were stored in a refrigerator at - 80 ° C and frozen until analysis. Plasma, liver and kidney tissues were stored in a freezer at - 80 ℃ and then frozen until analysis was performed.
# 1.4. Preparation of Calibration Standards and Quality Control (QC) Samples 1b, C10, and IS were dissolved separately in methanol to get a stock solution concentration of 1.0 mg/mL. The stock solution of the drug to be tested was then diluted with methanol to prepare the working solution. Calibration standards and QC samples were prepared by diluting the working solution with methanol. The final concentrations of C10 were 25, 250 and 1000 ng/mL, 1b final concentration of 150, 1500 and 6000 ng/mL.The final concentration of IS is 10 ng/mL.
# 1.5.Mouse plasma sample preparation
# The plasma to be tested was thawed at room temperature, and 100 μL of mouse plasma samples were collected in 1.5 mL EP tubes. 10 μL of IS solution (10 ng/mL) and 10 μL of methanol were mixed followed by the addition of 400 μL […] (1:1 v / v), and then the tubes were vortex mixed for 3.0 min.
# After centrifugation at 13,000 rpm for 20 min at 4 °C, the supernatant was transferred to a nitrogen blower, and the solvent was dried by maintaining a steady flow of nitrogen. After drying the solvent, reconstituted with 100 μL 20% aqueous methanol
# [8] = male, Kunming, mouse, iv, 0.45 mg/kg, C10 in plasma, Saline-treated Group
# [9] = male, Kunming, mouse, iv, 0.45 mg/kg, C10 in plasma, 1b-treated Group
smiles,measurement,setting,value
"CCCCNc1ccc(C(=O)OCCN(C)C)cc1 [TC, Tetracaine]",intracellular sodium loss,AC16 cells [1],approximately 20%
same,LD50,Balb/c mice [2],6.9 mg/kg
same,LD95,Balb/c mice [2],8.749 mg/kg and 8.7 mg/kg
same,LD50,[3],6.92 mg/kg
same,IC50,Human myocytes AC16 cell,384 µM
same,mean fluorescence intensity (plasma membrane potential),AC16 cells [4],significant rise in mean fluorescence intensity
"C[N+](C)(C)CCCCCCCCCC[N+](C)(C)C [C10, Decamethonium]",ED95 for inducing muscle paralysis,Balb/c mice [5],0.53 mg/kg
same,ED50,"Balb/c mice [5]; Mus musculus, iv, read-out: ED50 for inducing muscle paralysis",0.37 mg/kg
same,average recovery time,C10-induced paralysis,approximately 402.8 seconds
same,LD95,mice,0.86 mg/kg
same,LD50,[6],0.69 mg/kg
same,CL,"[7]; C10 in plasma, 1b-treated Group",1.12 ± 0.22 mL/h/g
same,CL,"[7]; C10 in plasma, Saline-treated Group",1.54 ± 0.16 mL/h/g
same,Tmax,[7]; [8],3 min
same,AUC(0-inf),"[7]; male, Kunming, mouse, iv, 0.45 mg/kg, C10, 1b-treated Group, read-out: area under the plasma concentration-time curve (AUC0-∞)",414 ± 80.9 ng·h/mL
same,AUC(0-inf),"[7]; male, Kunming, mouse, iv, 0.45 mg/kg, C10, saline-treated Group, read-out: area under the plasma concentration-time curve (AUC0-∞)",294 ± 28 ng·h/mL
same,AUC(0-t),[7]; [9],406 ± 77.2 ng·h/mL
same,Cmax,[7]; [9],1630 ± 345 ng/mL
same,AUC(0-inf),"[7]; male, Kunming, mouse, iv, 0.45 mg/kg, C10 in plasma, 1b-treated Group, read-out: AUC0-∞",414 ± 80.9 ng·h/mL
same,MRT last,[7]; [9],9 ± 1.2 min
same,MRT inf,[7]; [9],10.2 ± 1.8 min
same,half-life,[7]; [9],11.4 ± 1.2 min
same,Vd,[7]; [9],0.3 ± 0.06 L/kg
same,AUC(0-t),[7]; [8],284 ± 26.4 ng·h/mL
same,Cmax,[7]; [8],1310 ± 179 ng/mL
same,AUC(0-inf),"[7]; male, Kunming, mouse, iv, 0.45 mg/kg, C10 in plasma, Saline-treated Group, read-out: AUC0-∞",294 ± 28 ng·h/mL
same,MRT last,[7]; [8],6.6 ± 1.2 min
same,MRT inf,[7]; [8],9.6 ± 2.4 min
same,half-life,[7]; [8],21.6 ± 9.6 min
same,Vd,[7]; [8],0.8 ± 0.33 L/kg
